# Test results as given in patent US20120208776A1 (priority 2002, published 2012).
# Several values for one entry are separate records, joined by “and”; a condition that tells them apart may be missing. Identical values can stand only once. Like-named read-outs stand apart in the source and are kept apart here.
# Assays:
# HCC1569 cells = assay: MTT assay, 96 hours; assay type: cell-based; conditions: Homo sapiens
# MDA-MB-453 cells [1] = assay: Cell-cycle analysis by DNA flow cytometry; assay type: cell-based, human; conditions: for Sub G1 (%) / G1 (%) / G2/M (%) / S (%): 48 hrs; for G1 / G2 / S / SubG1: 24 hours
# Procedure: Synchrony: To synchronize the cells, 3×10^5 cells were plated onto 10 cm dishes and grown for 2 days in DMEM supplemented with 10% fetal bovine serum.
# After incubation for 1-3 days, the supernatant was collected, and the cells were trypsinized, collected, and washed with phosphate buffered saline (PBS) containing 5% FBS. Cell pellets were re-suspended in 1 ml of PBS plus 5% FBS. Thereafter, 5 ml of 70% ethanol were added drop-wise, while vortexing the tube, and the mixture was stored at 4° C. Cells were centrifuged, washed with PBS plus 5% FBS, and re-suspended in 400 μl of propidium iodide (0.1 mg/ml) (Sigma Chemical Co.). 400 μl (2 mg/ml) of RNase (Sigma Chemical Co.) were added, and the cells were incubated in the dark at room temperature for 30 min.
# MDA-MB-453 cells [2] = assay: MTT assay, 96 hours; assay type: cell-based, human; conditions: for IC50: Homo sapiens, MTT, 96 h
# Procedure: (§1) For the Coulter counter assay, cells were seeded at 2×10^4 cells per well in 24 well plates (0.875 cm diameter) as described previously. […] Control and treated cells were compared using the student's t-test (p<0.05). For cell cycle analysis the cells were plated (3×10^5) onto 6 cm dishes and allowed to attach for 24 hours. […] After 24 hours the cells were analyzed by DNA flow cytometry, as described previously.
# Na^+-K^+-ATPase = test system: T1, Na^+-K^+-ATPase; assay: Combination of agents on Na^+-K^+-ATPase activity, combination index; assay type: biochemical
# T1 construct: Combination index; actein (μM); Combination index; actein; ATPase activity; other: actein 0.8 μM alone; other: digitox
# Procedure: Enzymatic assay of adenosine 5′-triphosphatase. The enzymatic assay of ATPase (adenosine 5′-triphosphatase, EC 3.6.1.3) followed the Sigma Prod. […] [P] was determined by the Taussky-Shorr method.
# ERK2 in MDA-MB-453 cells = assay: RNAi-mediated gene knockdown of ERK2 (MAPK1), growth inhibition; assay type: cell-based, human; conditions: for inhibition at 20 µg/mL: Homo sapiens, MDA-MB-453, 48 h, actein 20 μg/ml, 48 h, read-out: percent growth inhibition; for cell proliferation: digitoxin 0.4 μg/ml, 24 hours
# Procedure: RNAi-mediated gene knockdown. To test the functional relevance of ERK2 (p42/44MAPK pathway), the growth inhibitory effects of actein on MDA-MB-453 cells using the model system RNAi-mediated gene knockdown was examined. Cells were pretreated with siRNA to ERK2 (Hs/Mm MAPK1 siRNA) (Qiagen, Valencia, Calif.) for 24 h, then treated with actein at 20 μg/ml for 48 h, and the percent surviving cells was assayed. Western blot analysis was performed to confirm the ERK2 knockdown.
# MDA-MB-453 cells [3] = assay: Combination of agents, MTT assay, combination index
# Procedure: Calculating the Combination Index. To determine the Combination Index (CI), 1) the Na^+-K^+-ATPase enzyme or 2) MDA-MB-453 cells were exposed to all combinations of 3, 4 or 5 concentrations of each of the agents tested and a solvent control. […] The results of the enzymatic assay of ATPase or MTT assay were analyzed for possible synergistic effects using the median effect principle. Variable ratios of drugs were employed and mutually exclusive equations were assumed.
# Calculating the Combination Index.
# The simvastatin was obtained from Sigma of St. Louis, Mo. The concentrations tested in the present example were 0, 0.2, 2, 5, and 20 μg/ml actein and 0, 0.8, 4, 20 and 40 μg/ml simvastatin.
# MCF7 cells = assay: MTT assay, 96 hours; assay type: cell-based, human
# MDA-MB-453 cells [4] = assay: Cell proliferation, cell count (Coulter Counter); conditions: Homo sapiens, MDA-MB-453, 96 h
# Procedure: For the cell count assay, breast cancer cells were seeded, in triplicate, at 2×10^4 cells per well, in 24- or 96-well plates.
# as §1
# [5] = Homo sapiens, MDA-MB-453, read-out: percent viable cells
smiles,measurement,setting,value
CC(=O)O[C@@H]1C[C@@]23C[C@@]24CC[C@H](O[C@@H]2OC[C@@H](O)[C@H](O)[C@H]2O)C(C)(C)[C@@H]4CC[C@H]3[C@]2(C)C[C@@H]3O[C@]4(C[C@@H](C)[C@@H]3[C@@]12C)O[C@H](O)[C@@]1(C)O[C@@H]41 [actein],IC50,"HCC1569 cells; unit inferred, read-out: IC50",25000 nM
same,Sub G1 (%),"MDA-MB-453 cells [1]; (a) DMEM + […] FBS 48 hrs, then actein 20 μg/ml",1.8%
same,G1 (%),"MDA-MB-453 cells [1]; (a) […] FBS, actein 20 μg/ml",79.6%
same,G2/M (%),"MDA-MB-453 cells [1]; (a) […] FBS, actein 20 μg/ml",10.0%
same,S (%),"MDA-MB-453 cells [1]; (a) […] FBS, actein 20 μg/ml",8.5%
same,G1 (%),"MDA-MB-453 cells [1]; (a) […] FBS, actein 40 μg/ml",83.8%
same,G2/M (%),"MDA-MB-453 cells [1]; (a) […] FBS, actein 40 μg/ml",9.0%
same,S (%),"MDA-MB-453 cells [1]; (a) […] FBS, actein 40 μg/ml",4.9%
same,Sub G1 (%),"MDA-MB-453 cells [1]; (a) […] FBS, actein 40 μg/ml",2.2%
same,G1 (%),MDA-MB-453 cells [1]; (b) Actein 2 μg/mL,69.8%
same,G2/M (%),MDA-MB-453 cells [1]; (b) Actein 2 μg/mL,18.6%
same,S (%),MDA-MB-453 cells [1]; (b) Actein 2 μg/mL,11.0%
same,Sub G1 (%),MDA-MB-453 cells [1]; (b) Actein 2 μg/mL,0.9%
same,G1 (%),MDA-MB-453 cells [1]; (b) Actein 20 μg/mL,70.8%
same,G2/M (%),MDA-MB-453 cells [1]; (b) Actein 20 μg/mL,18.2%
same,S (%),MDA-MB-453 cells [1]; (b) Actein 20 μg/mL,9.7%
same,Sub G1 (%),MDA-MB-453 cells [1]; (b) Actein 20 μg/mL,1.6%
same,G1 (%),MDA-MB-453 cells [1]; (c) Actein 20 μg/mL,59.2%
same,G2/M (%),MDA-MB-453 cells [1]; (c) Actein 20 μg/mL,29.5%
same,S (%),MDA-MB-453 cells [1]; (c) Actein 20 μg/mL,8.6%
same,Sub G1 (%),MDA-MB-453 cells [1]; (c) Actein 20 μg/mL,2.7%
same,amplification: IC50 ATPase inhibition / IC50 growth inhibition,MDA-MB-453 cells [2],about 2 fold
same,IC50,MDA-MB-453 cells [2]; read-out: IC50,~5 µg/mL and ~7.4 µM
same,ATPase activity,Na^+-K^+-ATPase; actein 0.8 μM alone,95.1%
same,inhibition at 20 µg/mL,ERK2 in MDA-MB-453 cells; ERK2 siRNA,79.6%
same,inhibition at 20 µg/mL,ERK2 in MDA-MB-453 cells; control siRNA,100%
same,viability at 0.2 µg/mL,MDA-MB-453 cells [3]; [5],97.8%
same,viability at 2 µg/mL,MDA-MB-453 cells [3]; [5],75.8%
same,viability at 5 µg/mL,MDA-MB-453 cells [3]; [5],70.9%
same,cell survival,MDA-MB-453 cells [3]; actein 2 ug/ml alone (simvastatin study),68.2%
same,IC50,"MCF7 cells; Homo sapiens, MCF7, unit inferred, read-out: IC50",20700 nM
same,IC50,MDA-MB-453 cells [4],~8 µg/mL
C[C@H]1O[C@@H](O[C@H]2[C@@H](O)C[C@H](O[C@H]3[C@@H](O)C[C@H](O[C@H]4CC[C@@]5(C)[C@H](CC[C@@H]6[C@@H]5CC[C@]5(C)[C@@H](C7=CC(=O)OC7)CC[C@]65O)C4)O[C@@H]3C)O[C@@H]2C)C[C@H](O)[C@@H]1O [digitoxin],IC50,HCC1569 cells,120 nM
same,G1,MDA-MB-453 cells [1]; digitoxin 0.2 μg/mL,46.50 (1.98) %
same,G2,MDA-MB-453 cells [1]; digitoxin 0.2 μg/mL,19.05 (0.07) %
same,S,MDA-MB-453 cells [1]; digitoxin 0.2 μg/mL,27.65 (0.64) %
same,SubG1,"MDA-MB-453 cells [1]; digitoxin 0.2 μg/mL, SD in parentheses",6.77 (1.06) %
same,G1,MDA-MB-453 cells [1]; digitoxin 2.0 μg/mL,41.90 (2.26) %
same,G2,MDA-MB-453 cells [1]; digitoxin 2.0 μg/mL,32.10 (1.27) %
same,S,MDA-MB-453 cells [1]; digitoxin 2.0 μg/mL,17.80 (0.42) %
same,SubG1,MDA-MB-453 cells [1]; digitoxin 2.0 μg/mL,5.78 (1.02) %
same,IC50,"MDA-MB-453 cells [2]; MDA-MB-453, 96 h",~0.025 µg/mL and ~33 nM
same,ATPase activity,Na^+-K^+-ATPase; digitoxin 0.2 μM alone,87.8%
same,ATPase activity,Na^+-K^+-ATPase; digitoxin 0.8 μM alone,53.6%
same,cell proliferation,ERK2 in MDA-MB-453 cells; control siRNA,96.0%
same,cell proliferation,ERK2 in MDA-MB-453 cells; siRNA to MAPK1,76.9%
same,viability at 0.01 µg/mL,"MDA-MB-453 cells [3]; Homo sapiens, MDA-MB-453, read-out: percent viable cells, digitoxin 0.01 μg/ml alone (actein study)",62.8%
same,viability at 0.01 µg/mL,"MDA-MB-453 cells [3]; Homo sapiens, MDA-MB-453, read-out: percent viable cells, digitoxin 0.01 μg/ml alone (paclitaxel study)",73%
same,IC50,"MCF7 cells; Homo sapiens, MCF7, MCF7",0.2 µg/mL
same,IC50,"MCF7 cells; Homo sapiens, MCF7, MCF7, unit inferred",261 nM
same,IC50,"MCF7 cells; MCF7, unit inferred",260 nM
same,IC50,MDA-MB-453 cells [4],0.04 µg/mL and 50 nM
